# Test results reported in patent US9174966B2, “Crystalline forms of 6-(1H-imidazol-1-yl)-2-phenylquinazoline” (ROTTAPHARM S.P.A., priority 2009, dated 2015).
# Where “and” joins values, the source holds several entries; their conditions need not be identical. Equal entries are not always repeated. Entries after “also recorded” stand apart in the source; their conditions may differ. Structures can show the parent of a compound that is named as a salt. Where two headings read alike, the source gives them in different places.
# What was measured:
# [1] = Thermal stability of the crystalline form (XRPD)
# [2] = Dissolution rate in water at 37° C.; type: physicochemical; details: 2 mg of product in 40 mL of water at 37° C., 500 rpm, absorbance at 260 nm
# Description: (§1) The sample of 6-(1H-imidazol-1-yl)-2-phenylquinazoline phosphate, form A, is stirred in an aqueous solution of NaCl 0.9%, at 500 rpm, so as to obtain a suspension (70 mg in 2 mL), for 24 hours at 37° C. […] The dissolution rate is measured by adding 2 mg of product to 40 mL of water at 37° C., stirring at 500 rpm, and measuring the absorbance at 260 nm every 0.05 min; the dissolution rate is found to be 1.9×10^−4 gr/min.
# [3] = Stability to moisture, DVS analysis (Differential Vapour Sorption); type: physicochemical; details: 25° C.; for hygroscopicity (DVS): hydration/dehydration cycle
# Description: The sample placed on a microbalance is subjected, in a chamber of controlled humidity, at 25° C., to a cycle of hydration (increasing humidity, red line) and of dehydration (decreasing humidity, blue line).
# The sample of 6-(1H-imidazol-1-yl)-2-phenylquinazoline succinate form A was subjected to DVS analysis (as described in Example 32).
# The sample of 6-(1H-imidazol-1-yl)-2-phenylquinazoline L-tartrate dihydrate, form A, was subjected to DVS analysis.
# The sample of 6-(1H-imidazol-1-yl)-2-phenylquinazoline maleate, form A, was subjected to DVS analysis.
# [4] = Pharmacokinetics in rats, oral versus intravenous administration; type: in vivo; details: for bioavailability: read-out: F (bioavailability); for half-life: read-out: T½
# Description: The samples are analysed by HPLC-MS to determine the content of 6-(1H-imidazol-1-yl)-2-phenylquinazoline, using diphenylhydramine hydrochloride as internal standard. The pharmacokinetic parameters measured are summarized hereinbelow: it is noted that, despite the fact that the polymorph under consideration is of low solubility, the bioavailability (F %) is entirely acceptable.
# The pharmacokinetic parameters measured are summarized hereinbelow: it is noted that the salt under consideration has optimum bioavailability (F %). […]
# [5] = Hygroscopicity noted for the isolated crystalline product; type: physicochemical; details: as noted in the preparation example
# [6] = Stability to mechanical stress (milling, XRPD); type: physicochemical; details: Retsch MM 200 mill, 50 Hz, 5 min.
# Description: 6-(1H-Imidazol-1-yl)-2-phenylquinazoline, polymorph A, was subjected to milling by means of a Retsch MM 200 mill, at 50 Hz for 5 min., and the product thus obtained was analysed by XRPD.
# 6-(1H-Imidazol-1-yl)-2-phenylquinazoline succinate form A, was subjected to milling by means of a Retsch MM 200 mill, at 50 Hz for 5 min., and the product thus obtained was subjected to XRPD analysis.
# 6-(1H-Imidazol-1-yl)-2-phenylquinazoline L-tartrate dihydrate, form A, was subjected to milling by means of a Retsch MM 200 mill, at 50 Hz for 5 min., and the product thus obtained was subjected to XRPD analysis.
# 6-(1H-Imidazol-1-yl)-2-phenylquinazoline maleate, form A, was subjected to milling by means of a Retsch MM 200 mill, at 50 Hz for 5 min., and the product thus obtained was subjected to XRPD analysis.
# [7] = Solubility in aqueous solution of NaCl 0.9% (UV absorbance at 260 nm); type: physicochemical; details: aqueous NaCl 0.9%, stirred 500 rpm, 24 hours at 37° C.; for solubility at 24 h: aqueous solution of NaCl 0.9%, 37 °C, saline or isotonic, thermodynamic from solid
# Description: The solubility is 0.6 mg/mL. […]
# The sample of 6-(1H-imidazol-1-yl)-2-phenylquinazoline phosphate, form A, is stirred in an aqueous solution of NaCl 0.9%, at 500 rpm, so as to obtain a suspension (50 mg in 2 mL), for 24 hours at 37° C.
# as §1
# [8] = 90° C., 12 hours (or at least 12 hours), XRPD
# [9] = IV, 5 mg/kg, dihydrochloride monohydrate
# [10] = OS (oral), 10 mg/Kg, dihydrochloride monohydrate
# [11] = rat, blood, OS 10 mg/Kg compared with IV 5 mg/kg
# [12] = rat, blood, iv, 5 mg/kg, IV, 5 mg/kg
# [13] = rat, blood, po, 10 mg/kg, OS (oral), 10 mg/Kg, read-out: Tmax (converted)
# [14] = rat, blood, po, 10 mg/kg, OS (oral), 10 mg/Kg
# [15] = heating at/to 90° C., time not stated, succinate
compound,measurement,setting,value
6-(1H-imidazol-1-yl)-2-phenylquinazoline maleate hemihydrate [maleate salt form B],thermal stability of crystalline form,"[1]; 40° C., RH 85%, 7 days, XRPD",partially converted into form A
same,thermal stability of crystalline form,[1]; [8],converted into form A
"c1ccc(-c2ncc3cc(-n4ccnc4)ccc3n2)cc1 [dihydrochloride monohydrate form A, 6-(1H-imidazol-1-yl)-2-phenylquinazoline dihydrochloride monohydrate]",dissolution rate,[2],2.17×10^−3 gr/min
same,hygroscopicity (DVS),[3],"in the range 30-80% relative humidity (RH), the product is not particularly hygroscopic"
same,water content (DVS),[3]; range 30-80% relative humidity,about 5%
same,CL,[4]; [9],24 mL/min/kg
same,T½,[4]; [9],46.6 min
same,V,[4]; [9],1.26 L/kg
same,F (bioavailability),"[4]; OS 10 mg/Kg compared with IV 5 mg/kg, dihydrochloride monohydrate",90.0%
same,CL,[4]; [10],18 mL/min/kg
same,Tmax,[4]; [10],80 min
same,T½,[4]; [10],59.9 min
same,V,[4]; [10],2.96 L/kg
same,thermal stability of crystalline form,"[1]; 40° C., RH 85%, 7 days, XRPD, dihydrochloride monohydrate",stable
same,time after which complete conversion into the monohydrochloride is noted,"[1]; 90° C., VT-XRPD",48 h
same,time after which formation of the monohydrochloride is noted,"[1]; 90° C., VT-XRPD",36 h
same,thermal stability of crystalline form,"[1]; 90° C., several hours",stable
same,hygroscopicity of the isolated product,[5],non-hygroscopic
same,stability to milling,[6]; dihydrochloride monohydrate,"No increase in the amount of amorphous product present relative to the reference example, as well as no foreign signals attributable to other forms"
same,solubility at 24 h,[7],138000 µg/mL
"c1ccc(-c2ncc3cc(-n4ccnc4)ccc3n2)cc1 [form B, 6-(1H-imidazol-1-yl)-2-phenylquinazoline monohydrate]",thermal stability of crystalline form,"[1]; 40° C., RH 85%, 7 days, XRPD, monohydrate",appearance of the signals of form E
same,behaviour in variable temperature experiment (VT-XRPD),[1]; heated to between 40° C. and 180° C.,conversion into form E
"c1ccc(-c2ncc3cc(-n4ccnc4)ccc3n2)cc1 [form C, 6-(1H-imidazol-1-yl)-2-phenylquinazoline monohydrate]",thermal stability of crystalline form,"[1]; 40° C., RH 85%, 5 days (at least 5 days for polymorph A), XRPD",stable
same,thermal stability of crystalline form,"[1]; 90° C., 3 hours, XRPD, monohydrate",complete conversion into form E
"c1ccc(-c2ncc3cc(-n4ccnc4)ccc3n2)cc1 [form D, 6-(1H-imidazol-1-yl)-2-phenylquinazoline]",thermal stability of crystalline form,"[1]; 40° C., RH 85%, 7 days, XRPD",stable
same,thermal stability of crystalline form,"[1]; 90° C., 3 hours, XRPD",stable
"O=C(O)/C=C/C(=O)O.c1ccc(-c2ncc3cc(-n4ccnc4)ccc3n2)cc1 [fumarate form A, 6-(1H-imidazol-1-yl)-2-phenylquinazoline fumarate]",dissolution rate,[2],2.67×10^−5 gr/min
same,thermal stability of crystalline form,"[1]; 40° C., RH 85%, 7 days, XRPD",stable
same,hygroscopicity of the isolated product,[5],non-hygroscopic
same,solubility at 24 h,[7],1200 µg/mL
"Cl.c1ccc(-c2ncc3cc(-n4ccnc4)ccc3n2)cc1 [hydrochloride salt form B, 6-(1H-imidazol-1-yl)-2-phenylquinazoline hydrochloride]",hygroscopicity of the isolated product,[5],hygroscopic
"O=C(O)/C=C\C(=O)O.c1ccc(-c2ncc3cc(-n4ccnc4)ccc3n2)cc1 [maleate form A, 6-(1H-imidazol-1-yl)-2-phenylquinazoline maleate]",dissolution rate,[2],1.45×10^−3 gr/min
same,hygroscopicity (DVS),[3]; maleate,not hygroscopic in the range 0-85% RH; also recorded: not particularly hygroscopic even at values of greater than 85% RH
same,V,"[4]; IV, 5 mg/kg",1.3 L/kg
same,CL,"[4]; OS (oral), 10 mg/Kg",16 mL/min/kg
same,V,"[4]; OS (oral), 10 mg/Kg",1.90 L/kg
same,bioavailability,[4]; [11],100%
same,clearance,"[4]; rat, blood, iv, 5 mg/kg",22 mL/min/kg
same,half-life,[4]; [12],45.6 min
same,Tmax,[4]; [13],60 min
same,half-life,[4]; [14],45 min
same,thermal stability of crystalline form,"[1]; 40° C., 70% RH, 7 days, XRPD",stable
same,thermal stability of crystalline form,[1]; [8],stable
same,hygroscopicity of the isolated product,[5],non-hygroscopic
same,stability to milling,[6],"has not undergone any changes of crystalline form, but a slight increase in the presence of amorphous product is revealed, which recrystallizes within a few hours on standing"
same,solubility at 24 h,[7],7900 µg/mL
"O=P(O)(O)O.c1ccc(-c2ncc3cc(-n4ccnc4)ccc3n2)cc1 [phosphate, form A, 6-(1H-imidazol-1-yl)-2-phenylquinazoline phosphate]",dissolution rate,[2]; phosphate,1.73×10^−4 gr/min and 1.9×10^−4 gr/min
same,solubility,[7]; phosphate,3600 µg/mL
same,solubility at 24 h,[7],6200 µg/mL
"O=C(O)CCC(=O)O.c1ccc(-c2ncc3cc(-n4ccnc4)ccc3n2)cc1 [succinate form A, 6-(1H-imidazol-1-yl)-2-phenylquinazoline succinate]",dissolution rate,[2],3.53×10^−5 gr/min
same,hygroscopicity (DVS),[3]; succinate,not entirely hygroscopic; also recorded: only at about 90% RH is there a significant minimum absorption of water
same,V,"[4]; IV, 5 mg/kg",1.1 L/kg
same,CL,"[4]; OS (oral), 10 mg/Kg",19 mL/min/kg
same,V,"[4]; OS (oral), 10 mg/Kg",3.74 L/kg
same,bioavailability,[4]; [11],65%
same,clearance,"[4]; rat, blood, iv, 5 mg/kg",18 mL/min/kg
same,half-life,[4]; [12],48.9 min
same,Tmax,[4]; [13],60 min
same,half-life,[4]; [14],48.6 min
same,thermal stability of crystalline form,"[1]; 40° C., RH 85%, 7 days, XRPD",stable
same,thermal stability of crystalline form,[1]; [8],stable
same,hygroscopicity of the isolated product,[5]; succinate,non-hygroscopic
same,stability to milling,[6],has not undergone any changes of crystalline form and no presence of amorphous product is revealed
same,solubility at 24 h,[7],600 µg/mL
"O=C(O)CCC(=O)O.c1ccc(-c2ncc3cc(-n4ccnc4)ccc3n2)cc1 [succinate salt form B, 6-(1H-imidazol-1-yl)-2-phenylquinazoline succinate]",thermal stability of crystalline form,[1]; [15],converted into form A
same,hygroscopicity of the isolated product,[5]; succinate,non-hygroscopic
"O=C(O)CCC(=O)O.c1ccc(-c2ncc3cc(-n4ccnc4)ccc3n2)cc1 [succinate salt form C, 6-(1H-imidazol-1-yl)-2-phenylquinazoline succinate]",thermal stability of crystalline form,[1]; [15],stable
same,hygroscopicity of the isolated product,[5]; succinate,not hygroscopic
"O.O.O.O.O=C(O)C(O)C(O)C(=O)O.c1ccc(-c2ncc3cc(-n4ccnc4)ccc3n2)cc1 [tartrate salt form B, 6-(1H-imidazol-1-yl)-2-phenylquinazoline (L)-tartrate tetrahydrate]",thermal stability of crystalline form,"[1]; 40° C., RH 85%, 7 days, XRPD",stable
same,thermal stability of crystalline form,[1]; [8],gives rise to the amorphous form
"O.O=C(O)C(O)C(O)C(=O)O.c1ccc(-c2ncc3cc(-n4ccnc4)ccc3n2)cc1 [tartrate salt form C, 6-(1H-imidazol-1-yl)-2-phenylquinazoline (L)-tartrate monohydrate]",thermal stability of crystalline form,"[1]; 40° C., RH 85%, 7 days, XRPD",stable
same,thermal stability of crystalline form,[1]; [8],stable
"O=C(O)C(O)C(O)C(=O)O.c1ccc(-c2ncc3cc(-n4ccnc4)ccc3n2)cc1 [tartrate salt form D, 6-(1H-imidazol-1-yl)-2-phenylquinazoline (L)-tartrate]",thermal stability of crystalline form,"[1]; 40° C., RH 85%, 7 days, XRPD",gives an XRPD corresponding to form A
same,thermal stability of crystalline form,[1]; [8],an amorphous product
